Experiments:
Grx2 = biological target: T1, Grx2 (Homo sapiens, UniProt Q9NS18); assay: UV/Vis spectroscopy of reconstituted holo-complex; assay type: binding; settings: bridges a dimer, co-ligated by two GSH; reconstituted with GSH, cysteine, iron and IscS, pH 8.0
T1 construct: gene GLRX2; Grx2c, His-tagged, recombinant from E. coli, IMAC purified; monomeric apo form, dimeric as Fe2S2 holo-complex
T1 sequence (Q9NS18 1-165 isoform Q9NS18-2): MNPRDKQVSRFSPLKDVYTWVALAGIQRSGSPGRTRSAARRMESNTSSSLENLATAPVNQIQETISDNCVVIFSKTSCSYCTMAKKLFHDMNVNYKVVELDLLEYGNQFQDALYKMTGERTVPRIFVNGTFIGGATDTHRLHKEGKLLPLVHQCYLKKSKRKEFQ

Grx5 = biological target: T2, Grx5 (Homo sapiens, UniProt Q86SX6); assay: UV/Vis spectroscopy of reconstituted holo-complex; assay type: binding; settings: bridges a dimer, co-ligated by two GSH; reconstituted with GSH, cysteine, iron and IscS, pH 8.0
T2 construct: gene GLRX5; transit peptide removed (forward primer encodes M-GSGAG...), pET15b, His-tagged, recombinant from E. coli, IMAC purified; dimeric as Fe2S2 holo-complex
T2 sequence (Q86SX6 33-157): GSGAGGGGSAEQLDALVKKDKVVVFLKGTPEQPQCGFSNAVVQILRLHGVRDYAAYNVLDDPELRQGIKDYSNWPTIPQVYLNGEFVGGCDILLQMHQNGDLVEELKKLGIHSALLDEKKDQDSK

AtGrxC1 = biological target: T3, AtGrxC1 (Arabidopsis thaliana, UniProt Q8L8T2); assay: HED assay, NADPH / glutathione reductase coupled; assay type: biochemical; settings: read-out: HED assay / Km app (HED) / μM; 1 mM GSH, 200 µM NADPH, yeast glutathione reductase, 100 mM potassium phosphate pH 7.8; actual substrate is the mixed disulfide βME-SG formed from HED and GSH
T3 construct: gene GRXC1; His-tagged, recombinant, IMAC purified
T3 sequence (Q8L8T2 whole entry): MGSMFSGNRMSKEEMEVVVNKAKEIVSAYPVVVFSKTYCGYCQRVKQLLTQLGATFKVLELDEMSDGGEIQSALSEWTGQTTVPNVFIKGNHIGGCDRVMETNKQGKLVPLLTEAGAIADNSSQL
From the text: HED assay, NADPH / glutathione reductase coupled on AtGrxC1

Row | SMILES | UV/Vis spectroscopy of reconstituted holo-complex (Grx2) | UV/Vis spectroscopy of reconstituted holo-complex (Grx5) | Km (AtGrxC1) [µM]
1 | [S]1[Fe][S][Fe]1 [Fe2S2 cluster] | The UV/VIS spectra (Fig. 4a) demonstrate the ability of all proteins to form FeS | The UV/VIS spectra (Fig. 4a) demonstrate the ability of all proteins to form FeS | –
2 | OCCSSCCO [HED] | – | – | 773 ± 164
